This is an account of results in paper PMC3698126, “MtnBD Is a Multifunctional Fusion Enzyme in the Methionine Salvage Pathway of Tetrahymena thermophila” (PLoS ONE, 2013).

What is called stoichiometry N is the number of molecules, sites or subunits per partner or assembly.

One test concerns the target T1, B. subtilis MtnX (Bacillus subtilis, UniProt O31667).
T1 sequence (O31667 1-235): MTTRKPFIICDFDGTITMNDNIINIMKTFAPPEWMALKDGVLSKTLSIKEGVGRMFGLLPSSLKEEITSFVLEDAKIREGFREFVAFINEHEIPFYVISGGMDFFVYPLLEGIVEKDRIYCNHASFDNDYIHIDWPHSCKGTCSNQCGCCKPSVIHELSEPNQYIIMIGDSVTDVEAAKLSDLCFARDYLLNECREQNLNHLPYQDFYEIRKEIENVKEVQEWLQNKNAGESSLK
As to the kind of experiment: UV-visible spectral shift to […] nm and 1H-NMR. Type of test: biochemical. To be noted: phosphatase reaction to DHK-MTPene; pH 8.0, 35°C; substrate made in situ by T. thermophila MtnB domain.

In the next test the target is T2, MtnB domain (Tetrahymena thermophila, UniProt I7MAL0).
T2 construct: gene TTHERM_00467500
Nature of the test: UV-visible and 1H-NMR product analysis. To be noted: dehydratase/enolase to HK-MTPenyl-1-P; 5 mM MgCl2, pH 8.0, 35°C; substrate made in situ from MTR-1-P by MtnA; kcat only, no Km. It is filed as biochemical.

A further test deals with T3, Full-length MtnBD (Tetrahymena thermophila, UniProt I7MAL0).
T3 construct: gene TTHERM_00467500
T3 sequence (I7MAL0 1-400): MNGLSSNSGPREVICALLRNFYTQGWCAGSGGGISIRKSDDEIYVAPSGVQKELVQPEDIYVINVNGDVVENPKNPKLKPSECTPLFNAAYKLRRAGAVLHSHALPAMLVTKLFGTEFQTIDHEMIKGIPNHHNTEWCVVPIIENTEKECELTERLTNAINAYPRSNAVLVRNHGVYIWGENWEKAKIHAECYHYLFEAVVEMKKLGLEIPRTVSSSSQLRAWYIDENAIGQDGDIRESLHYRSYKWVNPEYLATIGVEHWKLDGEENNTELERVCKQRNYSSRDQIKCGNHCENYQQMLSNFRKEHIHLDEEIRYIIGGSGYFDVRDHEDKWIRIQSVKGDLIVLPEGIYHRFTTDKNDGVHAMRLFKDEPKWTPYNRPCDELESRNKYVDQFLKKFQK
As to the kind of experiment: UV-visible and 1H-NMR product analysis. As to conditions: dehydratase/enolase to HK-MTPenyl-1-P; 5 mM MgCl2, pH 8.0, 35°C; substrate made in situ from MTR-1-P by MtnA; kcat only, no Km. It is filed as biochemical.

Test [1] addresses MtnB domain of Tetrahymena thermophila MtnBD (Met1-Ser216), histidine-tagged recombinant protein (Tetrahymena thermophila). Nature of the test: native gel or EMSA; native-PAGE, 5-20% gradient polyacrylamide gel, non-denaturing conditions, 1 ug purified protein, mass estimated against native high molecular weight markers; oligomer size from native mass over calculated monomer mass.

For test [2], the target named is Tetrahymena thermophila MtnBD, full-length, histidine-tagged recombinant protein (Tetrahymena thermophila). The description is as above.

With `CSCCC(=O)C(O)=COP(=O)(O)O` [HK-MTPenyl-1-P], the “UV-visible spectral shift to 310 nm and 1H-NMR” value on B. subtilis MtnX was “DHK-MTPene was obtained from the reaction of B. subtilis MtnX with HK-MTPenyl-1-P”.
As to `CSC[C@@H](O)[C@@H](O)C(=O)COP(=O)(O)O` [MTRu-1-P], the “UV-visible and 1H-NMR product analysis” value is listed as “MtnB domain catalyzed the dehydration/enolization reactions to convert MTRu-1-P to HK-MTPenyl-1-P” at MtnB domain and “T. thermophila MtnBD catalyzed the conversion of MTRu-1-P to HK-MTPenyl-1-P” on Full-length MtnBD.
As for “MtnB domain of Tetrahymena thermophila MtnBD (Met1-Ser216), histidine-tagged recombinant protein (domain or fragment)”, the stoichiometry N in test [1] was 6.
Turning to “Tetrahymena thermophila MtnBD, full-length, histidine-tagged recombinant protein (enzyme)”, the stoichiometry N in test [2] was 6.
